# *1 amine or outer side, *2 acyl side, *3 side chain or, on linkers, in order; H or OH if unused. Where a SMILES comes first, the peptide text is derived from it. Bridges are numbered along the chain shown (N, C = ends). Roman numbers before positions name the chains, in order. [ ]: non-standard residue; d: D form. Actinocin(9to1) = Cc1c2oc3c(C)ccc(C(=O)[*:1])c3nc-2c(C(=O)[*:2])c(N)c1=O; NMeV = CN[C@H](C(=O)O)C(C)C; Sar = CNCC(=O)O
# Legend:
# [1] = test system: sink probe 5'-GCGCC-3' (DNA, hairpin) CGCGCGGCAAAAAGCCGCGCG; assay: competitive BIND, sink against CP; conditions: none (no metal cations); 1x TE, 37 °C; sink in up to 100-fold excess over CP
# [2] = test system: sink probe 5'-TAAAT-3' (DNA, hairpin) CGATTTACAAAAAGTAAATCG; assay: competitive BIND, sink against CP; conditions: none (no metal cations); 1x TE, 37 °C; sink in up to 100-fold excess over CP
# [3] = test system: CP (25% GC) (DNA, duplex) AATTCGATTAGCAATTGGAGGTT/AATTGCTAATCGAATT; assay: BIND strand displacement fluorescence, McGhee-von Hippel fit; conditions: none (no metal cations); 1x TE, 37 °C; 20 nM CP, 10 nM invader I; per base
# [4] = test system: CP (75% GC) (DNA, duplex) GGGCTACGCGATGCGCGGAGGTT/GCGCATCGCGTAGCCC; assay: as above; conditions: none (no metal cations); 1x TE, 37 °C; 20 nM CP, 10 nM invader I; per base
# [5] = test system: CP (DNA, duplex) AGGTTGGTGAGTGATTGGAGGTT/AATCACTCACCAACCT; assay: as above; conditions: none (no metal cations), 1x TE, 37 °C, 20 nM CP, 10 nM invader I, per base
# [6] = test system: CP (C 18nt / P 11nt) (DNA, duplex) GGTGAGTGATTGGAGGTT/AATCACTCACC; assay: BIND strand displacement fluorescence; conditions: none (no metal cations); 1x TE, 37 °C; critical binder concentration scales with duplex length
# [7] = test system: CP (DNA, duplex) AGGTTGGTGAGTGATTGGAGGTT/AATCACTCACCAACCT; assay: fluorescence turn-on; conditions: 20 nM CP; site size 2.4; per base
# [8] = test system: CP (C 28nt / P 21nt) (DNA, duplex) ACAAGAGGTTGGTGAGTGATTGGAGGTT/AATCACTCACCAACCTCTTGT; assay: BIND strand displacement fluorescence; conditions: none (no metal cations); 1x TE, 37 °C; critical binder concentration scales with duplex length
# [9] = test system: CP (DNA, duplex) AGGTTGGTGAGTGATTGGAGGTT/AATCACTCACCAACCT; assay: BIND strand displacement fluorescence; conditions: none (no metal cations); 1x TE, 37 °C; 20 nM CP, 10 nM invader I
structure (smiles),measurement,setting,value
Cn1cc(NC(=O)c2cc(NC(=O)CN=C(N)N)cn2C)cc1C(=O)NCCC(=N)N,binding,[1],no
"Cc1c2oc3c(C)ccc(C(=O)N[C@@H]4C(=O)N[C@H](C(C)C)C(=O)N5CCC[C@H]5C(=O)N(C)CC(=O)N(C)[C@@H](C(C)C)C(=O)O[C@@H]4C)c3nc-2c(C(=O)N[C@@H]2C(=O)N[C@H](C(C)C)C(=O)N3CCC[C@H]3C(=O)N(C)CC(=O)N(C)[C@@H](C(C)C)C(=O)O[C@@H]2C)c(N)c1=O (I: T[dV]P[Sar][NMeV] / II: T[dV]P[Sar][NMeV]; ester I:1-I:C, II:1-II:C; linker I:N-II:N via Actinocin(9to1))",binding,[2],no
same,Kd,[3],983 nM
same,Kd,[4],83 nM
CCN(CC)CCn1nc2c3c(cccc3c1=O)-c1ccccc1-2,Kd,[5]; site size 1.3,212 nM
CCCN(CCCN(C)C)c1cc(C=C2Sc3ccccc3N2C)c2ccccc2[n+]1-c1ccccc1,binding,[6],yes
same,Kd,[7],9.3 nM
same,binding,[8],yes
same,Kd,"[5]; site size 2.6, b11 prints 7.1 nM",7.0 nM
[Ru+2].c1cnc2c(c1)ccc1cccnc12.c1cnc2c(c1)ccc1cccnc12.c1cnc2c(c1)ccc1cccnc12,binding,[9],weak
c1ccc(C[n+]2cccc3ccccc32)cc1,binding,[9],no

# Reference: publication PMC10352304 (2023)
